How the values were obtained:
[1] = tested on: influx of neutrophils to the lung in LPS-challenged rats; experiment: Rat LPS neutrophilia model; assay type: in vivo; details: LPS aerosol 100 ug/ml 15 min, lavage 4 hours later; in at least one of the range of conditions tested
Protocol: The effect of compounds on the influx of neutrophils to the lung in LPS-challenged rats is evaluated as follows. The test compound is suspended in one of the following solutions: 0.5% tween 80/PBS, 0.5% tween 80/saline, 10% EtOH/saline (with pH adjusted to 2.0, or 8.0 with HCl, or unadjusted), Saline @ pH 2.0, 6.5 or 8.0, 0.5% Tragacanth, 1% DMSO/20% Encapsin/Saline, or acidified 5% Tragacanth. The suspension process may be aided by the use of a glass homogenizer. For intratracheal administration, the animals are anesthetized with inhaled isoflurane and placed in a supine position, the trachea is intubated with a steel gavage needle (1.5 inch, 22 gauge, small ball) or a Penn-Century Microsprayer Aerosolizer (model IA-IB) and 200 ul of dosing solution is delivered. The animals are visually monitored during the recovery process, which typically occurs within two minutes.
Rats treated with compound or vehicle (15 min-24 hours pretreatment) are exposed to an LPS aerosol (100 ug/ml) for 15 min. Four hours later the rats are euthanized with pentobarbital (100 mg/kg, i.p.) and the airways are lavaged with 5 washes of 5 ml of phosphate buffered saline. The harvested cells are stained (Diffquick) and counted to determine total and differential cell data. In a typical study, macrophages represent 40-70% of the total cells, and polymorphonuclear cells 30-60% of the total cells. Inhibition of neutrophil levels relative to no compound controls is calculated based on the differential counts.
The assay has varying conditions, such as concentration, pretreat time, form of the compound (crystalline, amorphous, salts, micronised), and a wet or dry application of the compound. The data is obtained as % inhibition using a particular concentration and pretreat time.

Row | melting point | SMILES | inhibition of neutrophilia [1]
1 | 138 to 142 °C | Cc1ccc(C(=O)N(C)C)cc1-c1nc(NCCN(C)C)nc2c1CNC(=O)N2c1c(F)cccc1F [Example 152, 3-(8-(2,6-difluorophenyl)-2-{[2-(dimethylamino)ethyl]amino}-7-oxo-5,6,7,8-tetrahydropyrimido[4,5-d]pyrimidin-4-yl)-NN,4-trimethylbenzamide] | 
2 | 201 to 205 °C (dec.) | CCN(CC)C(=O)c1ccc(C)c(-c2nc(N3CCN(C)CC3)nc3c2CNC(=O)N3c2c(F)cccc2F)c1 [Example 162, 3-[8-(2,6-difluorophenyl)-2-(4-methyl-1-piperazinyl)-7-oxo-5,6,7,8-tetrahydropyrimido[4,5-d]pyrimidin-4-yl]-N,N-diethyl-4-methylbenzamide] | 
3 | 205 to 209 °C (dec.) | CNC(=O)c1ccc(C)c(-c2nc(NC3CCN(C)CC3)nc3c2CNC(=O)N3c2c(F)cccc2F)c1 [Example 173, 3-{8-(2,6-difluorophenyl)-2-[(1-methyl-4-piperidinyl)amino]-7-oxo-5,6,7,8-tetrahydropyrimido[4,5-d]pyrimidin-4-yl}-N,4-dimethylbenzamide] | 
4 | 114 to 118 °C | Cc1ccc(C(=O)N(C)C)cc1-c1nc(N(C)CCCN(C)C)nc2c1CNC(=O)N2c1c(F)cccc1F [Example 154, 3-{8-(2,6-difluorophenyl)-2-[[3-(dimethylamino)propyl](methyl)amino]-7-oxo-5,6,7,8-tetrahydropyrimido[4,5-d]pyrimidin-4-yl}-N,N,4-trimethylbenzamide] | 
5 | 163 to 165 °C | Cc1ccc(C(=O)N(C)C)cc1-c1nc(NC2CCN(C)CC2)nc2c1CNC(=O)N2c1c(F)cccc1F [Example 155, 3-{8-(2,6-difluorophenyl)-2-[(1-methyl-4-piperidinyl)amino]-7-oxo-5,6,7,8-tetrahydropyrimido[4,5-d]pyrimidin-4-yl}-N,N,4-trimethylbenzamide] | 
6 | 136 to 139 °C (dec.) | CNC(=O)c1ccc(C)c(-c2nc(NCCNC(C)C)nc3c2CNC(=O)N3c2c(F)cccc2F)c1 [Example 167, 3-[8-(2,6-difluorophenyl)-2-({2-[(1-methylethyl)amino]ethyl}amino)-7-oxo-5,6,7,8-tetrahydropyrimido[4,5-d]pyrimidin-4-yl]-N,4-dimethylbenzamide] | 
7 | 155 to 158 °C (dec.) | CNC(=O)c1ccc(C)c(-c2nc(NCCN(C)C)nc3c2CNC(=O)N3c2c(F)cccc2F)c1 [Example 163(c), 3-(8-(2,6-difluorophenyl)-2-{[2-(dimethylamino)ethyl]amino}-7-oxo-5,6,7,8-tetrahydropyrimido[4,5-d]pyrimidin-4-yl)-N,4-dimethylbenzamide] | 
8 | 164 to 168 °C (dec.) | CNC(=O)c1ccc(C)c(-c2nc(N3CCN(C)CC3)nc3c2CNC(=O)N3c2c(F)cccc2F)c1 [Example 169, 3-[8-(2,6-difluorophenyl)-2-(4-methyl-1-piperazinyl)-7-oxo-5,6,7,8-tetrahydropyrimido[4,5-d]pyrimidin-4-yl]-N,4-dimethylbenzamide] | 
9 | 89 to 91 °C | CCN(CC)C(=O)c1ccc(C)c(-c2nc(NCCNC(C)C)nc3c2CNC(=O)N3c2c(F)cccc2F)c1 [Example 160, 3-[8-(2,6-difluorophenyl)-2-({2-[(1-methylethyl)amino]ethyl}amino)-7-oxo-5,6,7,8-tetrahydropyrimido[4,5-d]pyrimidin-4-yl]-N,N-diethyl-4-methylbenzamide] | 
10 | 165 to 169 °C | CCN(CC)C(=O)c1ccc(C)c(-c2nc(NC3CCN(C)CC3)nc3c2CNC(=O)N3c2c(F)cccc2F)c1 [Example 159, 3-{8-(2,6-difluorophenyl)-2-[(1-methyl-4-piperidinyl)amino]-7-oxo-5,6,7,8-tetrahydropyrimido[4,5-d]pyrimidin-4-yl}-N,N-diethyl-4-methylbenzamide] | 
11 | 172 to 176 °C (dec.) | Cc1ccc(C(=O)NCc2ccccc2)cc1-c1nc(NC2CCNCC2)nc2c1CNC(=O)N2c1c(F)cccc1F [21(b), 3-[8-(2,6-Difluorophenyl)-7-oxo-2-(4-piperidinylamino)-5,6,7,8-tetrahydropyrimido[4,5-d]pyrimidin-4-yl]-4-methyl-N-(phenylmethyl)benzamide] | 
12 | 218 to 223.5 °C | Cc1ccc(C(=O)Nc2ccc(C)c(-c3nc(NC4CCNCC4)nc4c3CNC(=O)N4c3c(F)cccc3F)c2)cc1F [Example 27(b), N-{3-[8-(2,6-difluorophenyl)-7-oxo-2-(4-piperidinylamino)-5,6,7,8-tetrahydropyrimido[4,5-d]pyrimidin-4-yl]-4-methylphenyl}-3-fluoro-4-methylbenzamide] | 

The next lines start with the compound.

Row | SMILES | melting point | inhibition of neutrophilia [1]
13 | CNC(=O)c1ccc(C)c(-c2nc(NCCCN(C)C)nc3c2CNC(=O)N3c2c(F)cccc2F)c1 [Example 166, 3-(8-(2,6-difluorophenyl)-2-{[3-(dimethylamino)propyl]amino}-7-oxo-5,6,7,8-tetrahydropyrimido[4,5-d]pyrimidin-4-yl)-N,4-dimethylbenzamide] | 164 to 167 °C (dec.) | statistically nonsignificant inhibition
14 | CNC(=O)c1ccc(C)c(-c2nc(N(C)CCCN(C)C)nc3c2CNC(=O)N3c2c(F)cccc2F)c1 [Example 174, 3-{8-(2,6-difluorophenyl)-2-[[3-(dimethylamino)propyl](methyl)amino]-7-oxo-5,6,7,8-tetrahydropyrimido[4,5-d]pyrimidin-4-yl}-N,4-dimethylbenzamide] | 163 to 165 °C | inactive
15 | Cc1ccc(C(=O)Nc2ccc(C)c(-c3nc(N4CCC(N)CC4)nc4c3CNC(=O)N4c3c(F)cccc3F)c2)cc1F [Example 24, N-{3-[2-(4-amino-1-piperidinyl)-8-(2,6-difluorophenyl)-7-oxo-5,6,7,8-tetrahydropyrimido[4,5-d]pyrimidin-4-yl]-4-methylphenyl}-3-fluoro-4-methylbenzamide] | 240 °C | statistically nonsignificant inhibition
16 | CCN(CC)CCCNc1nc(-c2cc(C(=O)NC)ccc2C)c2c(n1)N(c1c(F)cccc1F)C(=O)NC2 [Example 172, 3-[2-{[3-(diethylamino)propyl]amino}-8-(2,6-difluorophenyl)-7-oxo-5,6,7,8-tetrahydropyrimido[4,5-d]pyrimidin-4-yl]-N,4-dimethylbenzamide] | 133 to 136 °C | statistically nonsignificant inhibition
17 | CCN(CC)C(=O)c1ccc(C)c(-c2nc(N(C)CCCN(C)C)nc3c2CNC(=O)N3c2c(F)cccc2F)c1 [Example 161, 3-{8-(2,6-difluorophenyl)-2-[[3-(dimethylamino)propyl](methyl)amino]-7-oxo-5,6,7,8-tetrahydropyrimido[4,5-d]pyrimidin-4-yl}-N,N-diethyl-4-methylbenzamide] | 106 to 108 °C | 
18 | COc1nc(-c2cc(NC(=O)c3ccsc3)ccc2C)c2c(n1)N(c1c(F)cccc1F)C(=O)NC2 [10(e), N-{3-[8-(2,6-difluorophenyl)-2-(methyloxy)-7-oxo-5,6,7,8-tetrahydropyrimido-[4,5-d]pyrimidin-4-yl]-4-methylphenyl}-3-thiophenecarboxamide] | 225 to 228 °C (dec.) | 
19 | Cc1ccc(C(=O)NCc2ccccc2)cc1-c1nc(NCCN(C)C)nc2c1CNC(=O)N2c1c(F)cccc1F [Example 18, 3-(8-(2,6-Difluorophenyl)-2-{[2-(dimethylamino)ethyl]amino}-7-oxo-5,6,7,8-tetrahydropyrimido[4,5-d]pyrimidin-4-yl)-4-methyl-N-(phenylmethyl)benzamide] | 148 to 150 °C | 
20 | CCOc1nc(-c2cc(NC(=O)c3ccsc3)ccc2C)c2c(n1)N(c1c(F)cccc1F)C(=O)NC2 [Example 13, N-{3-[8-(2,6-difluorophenyl)-2-(ethyloxy)-7-oxo-5,6,7,8-tetrahydropyrimido[4,5-d]pyrimidin-4-yl]-4-methylphenyl}-3-thiophenecarboxamide] | 199 to 202 °C (dec.) | 
21 | Cc1ccc(C(=O)NCc2ccccc2)cc1-c1nc(N(C)CCCN(C)C)nc2c1CNC(=O)N2c1c(F)cccc1F [Example 17, 3-{8-(2,6-Difluorophenyl)-2-[[3-(dimethylamino)propyl](methyl)amino]-7-oxo-5,6,7,8-tetrahydropyrimido[4,5-d]pyrimidin-4-yl}-4-methyl-N-(phenylmethyl)benzamide] | 124 to 127 °C | statistically nonsignificant inhibition
22 | Cc1ccc(C(=O)NCc2ccccc2)cc1-c1nc(NCCNC(C)C)nc2c1CNC(=O)N2c1c(F)cccc1F [Example 20, 3-[8-(2,6-Difluorophenyl)-2-({2-[(1-methylethyl)amino]ethyl}amino)-7-oxo-5,6,7,8-tetrahydropyrimido[4,5-d]pyrimidin-4-yl]-4-methyl-N-(phenylmethyl)benzamide] | 133 to 137 °C | 
23 | CNC(=O)c1ccc(C)c(-c2nc(NCCCNC(C)(C)C)nc3c2CNC(=O)N3c2c(F)cccc2F)c1 [Example 170, 3-[8-(2,6-difluorophenyl)-2-({3-[(1,1-dimethylethyl)amino]propyl}amino)-7-oxo-5,6,7,8-tetrahydropyrimido[4,5-d]pyrimidin-4-yl]-N,4-dimethylbenzamide] | 166 to 170 °C (dec.) | 
